The values below come from patent publication US20050014846A1, “Ambroxol for the treatment of tinnitus” (Boehringer Ingelheim International GmbH, priority 2003, published 2005).

In one experiment the target is T1, human GluR1/2 receptors (Homo sapiens, UniProt P42261+P42262).
T1 construct: expressed in transfected cells; host or cells: HEK 293
Briefly: Patch-clamp of glutamate-induced membrane currents in HEK 293 cells expressing GluR1/2. In kind it is cell-based. Particulars: recombinant human GluR1/2, 1 mM glutamate for 1 s at holding potential −80 mV. On the procedure:
Ionotropic glutamate receptors of the AMPA subtype are also essential for the excitatory neurotransmission. […] HEK 293 cells which expressed functionally recombinant human GluR1/2 receptors were electrophysiologically investigated by the Patch-Clamp method ([…]). The administration of 1 mM glutamate (for 1 s at a holding potential of −80 mV) induced membrane currents which were inhibited by the joint administration of ambroxol.
In general terms: Patch clamp records ionic current or voltage across a cell membrane.

Experiment [1] relates to centrally expressed neuronal sodium channels. Particulars: neuronal sodium channel subtypes, Weiser and Wilson, Mol. Pharmacol. 62, 433-438, 2002, read-out: half-maximum inhibition of centrally expressed channels; cited from earlier work.

T1 sequence (P42261 19-906): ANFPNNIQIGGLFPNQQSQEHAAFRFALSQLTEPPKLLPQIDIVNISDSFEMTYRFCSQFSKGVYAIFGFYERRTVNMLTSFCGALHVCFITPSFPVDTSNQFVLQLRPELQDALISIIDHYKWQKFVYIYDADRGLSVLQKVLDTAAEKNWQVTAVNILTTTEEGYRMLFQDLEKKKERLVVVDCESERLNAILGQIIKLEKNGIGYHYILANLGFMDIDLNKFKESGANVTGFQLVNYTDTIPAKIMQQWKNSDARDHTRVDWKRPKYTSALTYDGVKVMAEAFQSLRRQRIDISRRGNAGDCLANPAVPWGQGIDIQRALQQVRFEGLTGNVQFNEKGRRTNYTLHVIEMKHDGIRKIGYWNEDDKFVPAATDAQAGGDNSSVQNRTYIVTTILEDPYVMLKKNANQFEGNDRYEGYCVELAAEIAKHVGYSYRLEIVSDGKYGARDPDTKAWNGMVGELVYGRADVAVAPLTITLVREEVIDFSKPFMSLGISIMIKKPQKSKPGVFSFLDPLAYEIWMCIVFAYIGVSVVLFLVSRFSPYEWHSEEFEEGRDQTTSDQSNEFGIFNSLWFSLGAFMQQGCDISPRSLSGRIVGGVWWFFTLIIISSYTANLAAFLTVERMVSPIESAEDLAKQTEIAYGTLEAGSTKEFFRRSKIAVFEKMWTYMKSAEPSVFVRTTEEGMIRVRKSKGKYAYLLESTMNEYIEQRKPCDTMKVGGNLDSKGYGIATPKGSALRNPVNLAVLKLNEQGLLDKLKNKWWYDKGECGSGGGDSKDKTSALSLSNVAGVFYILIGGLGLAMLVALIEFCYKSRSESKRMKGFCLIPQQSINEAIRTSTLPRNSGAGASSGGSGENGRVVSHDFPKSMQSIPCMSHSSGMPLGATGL
T1 sequence (P42262 22-883 limits assumed): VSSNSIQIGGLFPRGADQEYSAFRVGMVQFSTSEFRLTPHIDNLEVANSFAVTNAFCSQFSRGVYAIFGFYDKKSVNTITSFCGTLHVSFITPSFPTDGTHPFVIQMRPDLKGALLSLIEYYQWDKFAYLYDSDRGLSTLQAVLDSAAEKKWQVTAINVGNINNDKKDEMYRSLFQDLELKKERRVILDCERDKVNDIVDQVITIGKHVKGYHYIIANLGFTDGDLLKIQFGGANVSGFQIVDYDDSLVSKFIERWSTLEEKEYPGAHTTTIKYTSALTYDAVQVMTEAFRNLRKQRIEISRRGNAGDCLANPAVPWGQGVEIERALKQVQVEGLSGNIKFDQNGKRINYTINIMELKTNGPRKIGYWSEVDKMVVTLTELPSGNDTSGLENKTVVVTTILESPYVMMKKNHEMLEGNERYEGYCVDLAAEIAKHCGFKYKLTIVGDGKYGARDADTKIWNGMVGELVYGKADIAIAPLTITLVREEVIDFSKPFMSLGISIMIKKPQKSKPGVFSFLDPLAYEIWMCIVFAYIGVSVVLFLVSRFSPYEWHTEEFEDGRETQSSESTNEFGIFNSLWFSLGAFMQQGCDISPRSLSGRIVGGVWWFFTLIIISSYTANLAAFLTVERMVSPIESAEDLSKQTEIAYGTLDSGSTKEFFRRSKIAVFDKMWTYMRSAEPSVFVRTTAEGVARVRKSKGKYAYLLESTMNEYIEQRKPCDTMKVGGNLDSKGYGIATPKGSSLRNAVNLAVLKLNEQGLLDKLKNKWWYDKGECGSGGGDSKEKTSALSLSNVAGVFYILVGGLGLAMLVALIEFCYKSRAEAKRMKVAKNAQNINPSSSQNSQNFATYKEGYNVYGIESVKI

In the case of `Nc1c(Br)cc(Br)cc1CN[C@H]1CC[C@H](O)CC1` [ambroxol, trans-4-(2-amino-3,5-dibromobenzylamino)cyclohexanol], on human GluR1/2 receptors, the “concentrations inhibiting glutamate-induced membrane currents” value fell in the range of 30 to 1000 µM. In addition, in experiment [1], the IC50 is 111 µM.
